{"source": "patent EP4813999A1", "about": "“NOVEL PEPTIDE DERIVATIVE AND PHARMACEUTICAL COMPOSITION FOR PREVENTING OR TREATING MACULAR DEGENERATION COMPRISING SAME” (Supadelixir Inc., priority 2023, dated 2026)", "key": {"HUVECs [1]": {"test_system": "HUVECs", "experiment": "VEGF-induced tube formation on Matrigel", "format": "cell-based, human", "conditions": "VEGF 10 ng/ml, test substance 0.1, 1, 10, 100 nM, 24 hours", "procedure": "(§1) The anti-angiogenic activity of the test substance (SE101B2L) was evaluated using HUVECs. HUVECs were cultured in CEFOgro-HUVEC basal medium (CEFO Co., Ltd.) supplemented with growth supplements containing vascular endothelial cell growth-related factors and serum (HUVEC supplements, CEFO Co., Ltd.), which was used as vascular endothelial cell growth medium (hereinafter denoted as \"growth medium\").\n(§2) The experiment was conducted by dividing the groups into an untreated group, a group treated with VEGF alone, and a group co-treated with VEGF and the test substance (SE101B2L).\nFirst, tube formation ability was confirmed to determine whether the test substance inhibited VEGF-induced angiogenesis. HUVECs were seeded into a Matrigel-coated 48-well plate at 5 × 10^4 cells per well together with 0.5 ml of growth medium. VEGF was added to each VEGF-treated group to a final concentration of 10 ng/ml, while the test substance was added to each test substance-treated group to final concentrations of 0.1, 1, 10, and 100 nM. The test plate was incubated in an incubator with 5% CO2 at 37°C for 24 hours. After 24 hours, the degree of tube formation was observed under a microscope and photographed. The total tube length in each image was measured using the ImageJ program. The results were converted to values relative to the tube length for the untreated group."}, "[2]": {"test_system": "CNV-induced male chinchilla rabbits", "experiment": "Macular degeneration animal model: laser-induced CNV, retinal fluorescein fundus imaging", "format": "in vivo", "conditions": "instillation 50 µL twice daily, Day 7 and Day 14, versus induced control group (G1)", "text": "As a macular degeneration animal model, CNV-induced male chinchilla rabbits were used. The efficacy test using the CNV animal model was commissioned to HLB Biostep Co., Ltd. (formerly Notus Co., Ltd.). In order to induce CNV formation, a mydriatic agent (Mydriacyl 1% eye drops) was instilled into the right eye of each chinchilla rabbit, followed by anesthesia. Thereafter, the right eye was irradiated using a laser (LIGHTLas 532, LIGHTMED, USA) under conditions of a wavelength of 532 nm and a power of 150 mW for 0.1 seconds, thereby creating six wounds in the 6 o'clock direction centered on the optic nerve.\nAn induced control group (G1) was repeatedly administered 0.9% aqueous sodium chloride solution (vehicle) by instillation twice daily. […]\nAfter initiation of administration to each group, a mydriatic agent (Mydriacyl 1% eye drops) was instilled into the right eye of each animal on Day 0, Day 7, and Day 14, followed by anesthesia. […] Confirmation of retinal CNV and evaluation of pharmacological efficacy were performed using retinal fluorescein fundus images, and image analysis was performed using the ImageJ software (NIH, Bethesda, MD) to analyze fluorescence intensity at irradiated sites.\nAssuming normality for the results of the present test, significance between test groups was analyzed using parametric one-way analysis of variance (one-way ANOVA). […]"}, "HUVECs [3]": {"test_system": "HUVECs", "experiment": "VEGF-induced chemotactic cell migration (transwell chamber)", "format": "cell-based, human", "conditions": "VEGF 10 ng/ml, test substance 0.1, 1, 10, 100 nM, 3 hours", "procedure": "as §2\nIn addition, whether the test substance could inhibit VEGF-induced changes in cell migration ability in HUVECs was confirmed. In terms of cell migration ability, changes in chemotactic cell migration were confirmed using a transwell chamber (24-well plate type). After coating the lower surface of a transwell insert membrane having a diameter of 6.5 mm and a pore size of 8.0 µm with 10 µg of gelatin, 5 × 10^4 cultured HUVECs were seeded into the inserts using 0.1 ml of HUVEC basal medium. The test substance was added to each test substance-treated group to final concentrations of 0.1, 1, 10, and 100 nM, and VEGF, together with HUVEC basal medium, was added to the lower wells configured in a 24-well plate format to a final concentration of 10 ng/ml, followed by incubation in an incubator with 5% CO2 at 37°C for 3 hours. Thereafter, the medium was removed from the inserts of the test groups, and the inserts were fixed using a 10% formalin solution. […] Migrated cells in each test group were photographed, and the number of cells was counted. The number of counted cells was converted to values relative to that of the untreated group, thereby calculating the results."}, "HUVECs [4]": {"test_system": "HUVECs", "experiment": "Cytotoxicity of test substance (CCK-8 cell viability)", "format": "cell-based, human", "conditions": "24, 48 and 72 hours, up to a concentration of 1,000 nM (1 µM), relative to untreated group at 24 hours", "procedure": "as §1\nHUVECs were seeded into a 96-well plate at 5 × 10^3 cells per well together with 0.1 ml of growth medium. After incubation for one day, the cells were treated with the test substance (SE101B2L) such that the final concentration increased tenfold from 0.001 nM (denoted as log -3) to 10,000 nM (denoted as log 4). Thereafter, test groups were incubated for 24, 48, and 72 hours, and Cell Counting Kit-8 (CCK-8) was added at each predetermined time point, followed by incubation for an additional 2 hours, and absorbance was measured at 450 nm. Cell viability was calculated relative to the absorbance value of the untreated group at 24 hours."}}}
{"substance": "decylbenzoyl-Cys-Phe-Lys-amide [SE101B2L]", "values": [{"measurement": "tube formation ability (total tube length)", "setting": "HUVECs [1]", "value": "reduced by the test substance in a concentration-dependent manner"}, {"measurement": "retinal fluorescence intensity", "setting": "[2]; G3: 3750 ppm", "value": "statistically significantly lower than those in the induced control group (G1) (p < 0.001)"}, {"measurement": "retinal fluorescence intensity", "setting": "[2]; G4: 187.5 ppm", "value": "statistically significantly lower than those in the induced control group (G1) (p < 0.001)"}, {"measurement": "cell migration ability (number of migrated cells)", "setting": "HUVECs [3]", "value": "reduced by the test substance in a concentration-dependent manner"}, {"measurement": "cell viability (cytotoxicity)", "setting": "HUVECs [4]", "value": "no significant difference in cell viability"}]}
